“Also recorded” adds a separate entry of the source.
Legend:
[1] = test system: MSCs; experiment: MSC osteogenic differentiation assay, ALP staining; type: cell-based, human
Experimental: Cell culture and treatment: The human MSCs were purchased from Lonza. Oleanolic acid was obtained from Sigma-Aldrich (Aldrich-5504). A 100 mM solution of OA was prepared in dimethyl sulfoxide (DMSO), and all test concentrations were prepared by diluting the stock solution in cell culture medium. […] At the end, cells were harvested at different time points for analyses as described below.
MSC osteogenic differentiation assay: Osteogenic differentiation assays of MSCs were performed using the Osteogenic differentiation bulletKit® (Lonza). MSCs were cultured at 200,000 cells/well in 6-well plates to confluence. […] After seven days of culture, alkaline phosphatase (ALP) staining, RNA, and protein isolation were performed as described in our published protocols.

[2] = test system: Notch signaling; experiment: Notch responsive RBPJ-Luc luciferase assay; type: cell-based, human; conditions: MSCs, 0, 10 μM and 20 μM OA, 48 hours
Experimental: Luciferase assay: 80% confluence MSCs were transfected with Notch responsive RBPJ-Luc and SV40-Renilla-Luc (Promega) in the presence of Lipofectamine 2000 (Invitrogen) followed by OA treatment. At 24 hours after transfection and treatment, lysates were analyzed with a Dual Luciferase Assay Kit (Promega).
The inventor has identified the RBPjk-dependent Notch pathway as an important inducer of MSC proliferation, and an inhibitor of MSC differentiation during mouse limb-bud and postnatal bone development. In this study, the inventor further tested whether Notch signaling is also involved in OA-mediated osteogenesis. To do so, MSCs were first transfected with the RBPjk-dependent NOTCH-responsive luciferase reporter, and then cultured in medium containing 0, 10 μM and 20 μM OA for 48 hours. […] Moreover, down-regulation of Notch target gene Hes1 expression was also observed in OA treated MSCs (FIG. 1E), which further confirmed the inhibitory effect of OA on Notch signaling.

[3] = test system: phospho-smad1/5/8; experiment: RT-PCR and western blot of phospho-smad1/5/8; type: cell-based, human; conditions: MSCs
Experimental: Real time RT-PCR: cDNA was synthesized from 1 μg total RNA using the SuperScript III reverse transcriptase kit (Invitrogen) in a final volume of 20 μl. Primers were designed with the IDT SCI primer design tool (Integrated DNA Technologies, San Diego, Calif.). RT-PCR experiments were performed with a Bio-Rad C1000 thermal cycler (Bio-Rad, Hercules, Calif.), and real-time PCR experiments were performed with an ABI prism 7500 (Applied Biosystems, Grand Island, N.Y.) in triplicate. […] Samples were analyzed in triplicate, and the raw data consisted of PCR cycle numbers required to reach a fluorescence threshold level. The relative expression level of target genes was normalized to (β-actin gene.
Western blot analysis: MSCs cultured with or without OA and BMP2 treatment were lysed in RIPA buffer (10 mM Tris-HCI, 1 mM EDTA, 1 sodium dodecyl sulfate [SDS], 1% NP-40, 1:100 proteinase inhibitor cocktail, 50 mM β-glycerophosphate, 50 mM sodium fluoride). The samples were separated on a 10% SDS polyacrylamide gel and transferred to polyvinylidene difluoride (PVDF) membranes with a semi-dry transfer apparatus (Bio-Rad). The membranes were blotted with 5% dehydrated milk for two hours, and then, incubated with primary antibodies overnight. […]

[4] = test system: MSC/HA pellet; experiment: In vivo ectopic bone-formation assay; conditions: MSCs with 20 μM OA, subcutaneous in nude mice, six weeks
Experimental: In vivo ectopic bone-formation assay: All animal studies were reviewed and approved by the Animal Ethics Committee of Louisiana State University Health Sciences Center. 1.0×10^6 total MSCs were re-suspended in 80 μl of MSC growth media containing 20 μM OA and gently mixed with 50 mg of hydroxyapatite (HA) powder (Himed). The composites were then centrifuged for two minutes at 200 rpm to form a MSC/HA pellet. For ectopic bone formation surgery, ten 8-week-old NOD.CB17^−Prkdescid/J mice (Charles River) (up to 2 implants for each animal) were anesthetized and the dorsal skin was cleaned with 70% ethanol. Two incisions of ˜1 cm in length were performed on the opposite flanks of the back, and then a pocket was formed by blunt dissection. Finally the MSC/HA pellets were implanted. Six weeks post-surgery, transplanted BMSC/HA pellets were harvested for gross observation and Masson's trichrome staining. […] All animal work was performed in accordance with institution approved guidelines.
MSCs were first dissolved in PBS containing 20 μM OA, then mixed with HA ceramic powder, and centrifuged into MSC/HA pellets prior to subcutaneous transplantation into nude mice. After six weeks of growth and differentiation, the pellets were harvested for gross observation, Masson's trichrome and immunohistochemistry staining (FIG. 4A).

[5] = test system: Notch target gene Hes1; experiment: Real time PCR of Notch target gene Hes1; type: cell-based, human; conditions: OA treated MSCs, day 7, vs DMSO treated control
Experimental: (§1) Real time RT-PCR: cDNA was synthesized from 1 μg total RNA using the SuperScript III reverse transcriptase kit (Invitrogen) in a final volume of 20 μl. Primers were designed with the IDT SCI primer design tool (Integrated DNA Technologies, San Diego, Calif.). RT-PCR experiments were performed with a Bio-Rad C1000 thermal cycler (Bio-Rad, Hercules, Calif.), and real-time PCR experiments were performed with an ABI prism 7500 (Applied Biosystems, Grand Island, N.Y.) in triplicate. Sequence for each primer pair were: Hes1, forward primer 5′-[…]-3′, reverse primer 5′-[…]-3′; ALP, forward primer 5′-[…]-3′, reverse primer 5′-[…] […]-3′; Runx2, forward primer 5′-[…]-3′, reverse primer 5′-[…]-3′; Osteocalcin (OC), forward primer 5′-[…]-3′, reverse primer 5′-[…]-3′; Osteopontin (OPN), forward primer 5′-[…]-3′, reverse primer 5′-[…]-3′; Type I collagen (Col1a1), forward primer 5′-[…]-3′, reverse primer 5′-[…]-3′; β-actin, forward primer 5′-[…]-3′; reverse primer 5′-[…] […]-3′. Samples were analyzed in triplicate, and the raw data consisted of PCR cycle numbers required to reach a fluorescence threshold level. The relative expression level of target genes was normalized to (β-actin gene.

[6] = test system: MSCs; experiment: Cell viability assay (MTT); type: cell-based, human; conditions: 12 hours
Experimental: (§2) Cell culture and treatment: The human MSCs were purchased from Lonza. Oleanolic acid was obtained from Sigma-Aldrich (Aldrich-5504). A 100 mM solution of OA was prepared in dimethyl sulfoxide (DMSO), and all test concentrations were prepared by diluting the stock solution in cell culture medium. […] After expansion, cells were exposed to media containing OA and/or BMP2 for certain days. […] At the end, cells were harvested at different time points for analyses as described below.
Cell viability assay: MSC viability was measured using MTT (3-(4, 5-dimethylthiazole-2-yl)-2, 5-diphenyl tetrazolium bromide) based in vitro toxicology assay kit (Sigma, St. Louis, Mo., USA). Briefly, cells were seeded in 96-well plates. After growing into 50-60% confluence, cells were exposed to various concentrations of OA for 12 hours, then the supernatant was discarded, and cells were treated with 0.5 mg/ml MTT staining solution for another four hours. After incubation, the supernatant was removed and 50 μl of solubilization buffer provided by the Sigma kit with 0.5% DMSO was added. DMSO was added to ensure total solubility of the formazan crystals. Plates were shaken for two minutes, and the absorbance recorded at 590 nm on an automated microtiter plate reader. The percent viability was expressed as a percentage of that in the vehicle control (with subtraction of background absorbance).

[7] = test system: NICD; experiment: Western blot of NICD; type: cell-based, human; conditions: OA treated MSCs, day 3
[8] = test system: MSCs; experiment: MSC osteogenic differentiation assay, real time RT-PCR of osteogenic markers; type: cell-based, human; conditions: OA 10 and 20 μM, seven days, vs DMSO treated control MSCs
Experimental: as §2
MSC osteogenic differentiation assay: Osteogenic differentiation assays of MSCs were performed using the Osteogenic differentiation bulletKit® (Lonza). MSCs were cultured at 200,000 cells/well in 6-well plates to confluence. Stem cell growth media was then replaced with osteogenic media supplied with or without OA and BMP2. After seven days of culture, alkaline phosphatase (ALP) staining, RNA, and protein isolation were performed as described in our published protocols.
as §1

[9] = test system: normal cells; conditions: cited from earlier work
[10] = test system: MSCs; experiment: Lentivirus-mediated Notch activation (NICD1 overexpression) in OA treated MSCs; type: cell-based, human

CC1(C)CC[C@]2(C(=O)O)CC[C@]3(C)C(=CC[C@@H]4[C@@]5(C)CC[C@H](O)C(C)(C)[C@@H]5CC[C@]43C)[C@@H]2C1 [OA, (3β)-3-hydroxyolean-12-en-28-oic acid]
ALP activity (ALP staining) ([1]; OA 20 μM and/or BMP2 200 ng/ml, seven days, osteogenic medium): significant increase; also recorded: relative weak ALP staining | ALP staining (MSC osteogenic differentiation) ([1]; OA 10 and 20 μM, seven days): dose dependent increase | osteogenic nodule formation ([1]; OA treated MSCs at day 7, maximal staining at 20 μM): increase in osteogenic nodule formation | Notch-responsive luciferase activity [2]: inhibited Notch-responsive luciferase activity dose dependently | gene expression of p-smad1/5/8 (RT-PCR) ([3]; day 7, OA 20 μM, BMP2 200 ng/ml): did not show any effects | p-smad1/5/8 expression (western blot) ([3]; day 7, control vs OA treated): no significant difference | increase of type I collagen bone matrix (blue) in the pellet area vs untreated MSCs [4]: approximately 4 fold | pellet area stained blue (type I collagen bone matrix, Masson's trichrome) [4]: 30% | Notch target gene Hes1 expression [5]: down-regulation | cell death in cell viability assay ([6]; OA 10 μM): no cell death | cell death in cell viability assay ([6]; OA 20 μM): no cell death | cell death in cell viability assay ([6]; OA 30 μM): significant cell death | expression of NICD (western blot) [7]: significantly reduced | ALP expression (early osteogenic marker) [8]: enhanced expression | Col1a1 expression (early osteogenic marker) [8]: enhanced expression | OC expression (later osteogenic marker) [8]: remained unchanged | OPN expression (later osteogenic marker) [8]: remained unchanged | Runx2 expression (early osteogenic marker) [8]: enhanced expression | cytotoxicity to normal cells [9]: no significant cytotoxicity | OA-induced ALP staining under overexpression of NICD1 ([10]; NICD1 lentivirus infected MSCs, OA, day 7): totally blocked | expression of ALP, Runx2 and Col1a1 in Notch activated MSCs with OA ([10]; NICD1 lentivirus, RT-PCR, day 7, vs control or OA treated MSCs): significantly reduced
